The nature of data set [1]: log P by HPLC on reversed-phase columns (EEC Directive 79/831 Annex V.A8). The class given is physicochemical.
Data set [2] has as its system larvae of the mustard beetle (Phaedon cochleariae). Description: Phaedon test (PHAECO spray treatment). Conditions: Phaedon cochleariae, 168 h, read-out: activity in % (beetle larvae killed).
For data set [3], the system named is caterpillars of the armyworm (Spodoptera frugiperda). Description: Spodoptera frugiperda test (SPODFR spray treatment). The data set is classed as in vivo. Conditions: Spodoptera frugiperda, 168 h, read-out: activity in % (caterpillars killed).
Setting [4] is: reversed-phase C18 HPLC column, pH 2.7, HPLC reversed-phase C18, acidic range pH 2.7 (HCOOH), only or first value of the cell, read-out: log P.
The mark [5] stands for this setting: application rate 100 g/ha, after 7 days.

Read-outs that look alike come from different tables or passages of the source.

Results on 44 molecules are retold here after US8791143B2, “Anthranilic diamide derivatives having cyclic side-chains” (priority 2010, dated 2014).

In data set [1] (pH 2.7, log P), `O=C(NC1COC1)c1cc(Cl)cc(Cl)c1NC(=O)c1cc(Cn2nnc(C(F)(F)F)n2)nn1-c1ncccc1Cl` [Example 5] gave a chromatographic logP of 2.79. For the same molecule, the pest or weed control at 100 g/ha in data set [2] and in data set [3] was 100% throughout. On to `Cc1cc(Cl)cc(C(=O)NC2COC2)c1NC(=O)c1cc(Cn2nc(C(F)(F)F)nc2C(F)(F)F)nn1-c1ncccc1Cl` [Example 8], for which the chromatographic logP in data set [1] (pH 2.7, log P) was 3.24. The pest or weed control at 100 g/ha in data set [2] and in data set [3] was 100% throughout.

Regarding `Cc1cc(Cl)cc(C(=O)NC2COC2)c1NC(=O)c1cc(Cn2nnc(C(F)(F)C(F)(F)F)n2)nn1-c1ncccc1Cl` [Example 9], the chromatographic logP in data set [1] (pH 2.7, log P) worked out at 3.21. For the same molecule, the pest or weed control at 100 g/ha in data set [2] and in data set [3] was 100% each time. In turn, `Cc1cc(C#N)cc(C(=O)NC2CSC2)c1NC(=O)c1cc(Cn2nnc(C(F)(F)C(F)(F)F)n2)nn1-c1ncccc1Cl` [Example 11] displayed a chromatographic logP in data set [1] (pH 2.7, log P) of 3.43. Also, the pest or weed control at 100 g/ha in data set [2] and in data set [3] was 100% in each case.

The molecule `Cc1cc(C#N)cc(C(=O)NC2COC2)c1NC(=O)c1cc(Cn2nnnc2C(F)(F)F)nn1-c1ncccc1Cl` [Example 12] had a chromatographic logP in data set [1] (pH 2.7, log P) of 2.17. The pest or weed control at 100 g/ha in data set [2] and in data set [3] was 100% throughout. `Cc1cc(C#N)cc(C(=O)NC2COC2)c1NC(=O)c1cc(Cn2nc(C(F)(F)F)nc2C(F)(F)F)nn1-c1ncccc1Cl` [Example 13] had a chromatographic logP in data set [1] (pH 2.7, log P) of 2.95. The pest or weed control at 100 g/ha in data set [2] and in data set [3] was 100% each time. The molecule `Cc1cc(Cl)cc(C(=O)NC2COC2)c1NC(=O)c1cc(Cn2nnc(C(F)F)n2)nn1-c1ncccc1Cl` [Example 16] showed a chromatographic logP in data set [1] (pH 2.7, log P) of 2.37. The pest or weed control at 100 g/ha in data set [3] stood at 100%.

With `Cc1cc(C#N)cc(C(=O)NC2COC2)c1NC(=O)c1cc(Cn2nnc(C(F)F)n2)nn1-c1ncccc1Cl` [Example 17], in data set [1] (pH 2.7, log P), the chromatographic logP amounted to 2.05. For the same molecule, in data set [3], the pest or weed control at 100 g/ha turned out to be 83%. The corresponding values for `O=C(NC1COC1)c1cc(Cl)cc(Cl)c1NC(=O)c1cc(Cn2nnc(C(F)F)n2)nn1-c1ncccc1Cl` [Example 19] are 2.37 and 100%. For `Cc1cc(Cl)cc(C(=O)NC2=NCCS2)c1NC(=O)c1cc(Cn2nnc(C(F)(F)C(F)(F)F)n2)nn1-c1ncccc1Cl` [Example 47], the “log P (second value after the slash)” value in data set [1] (pH 2.7) stood at 3.58. This molecule also returned a chromatographic logP in data set [1] (pH 2.7, log P) of 3.9. The pest or weed control at 100 g/ha in data set [2] and in data set [3] was 100% in each case. Consider `Cc1cc(C#N)cc(C(=O)NC2CCS(=O)(=O)C2)c1NC(=O)c1cc(Cn2nnc(C(F)(F)F)n2)nn1-c1c(F)cccc1F` (centres unmarked) [Example 52], for which the chromatographic logP in data set [1] (setting [4]) was 2.75. Besides, the pest or weed control at 100 g/ha in data set [2] and in data set [3] (setting [5]) was 100% each time. On to `Cc1cc(C#N)cc(C(=O)NC2CS(=O)(=O)CC2O)c1NC(=O)c1cc(Cn2nnc(C(F)(F)F)n2)nn1-c1ccccc1Cl` (centres unmarked) [Example 53], for which the chromatographic logP in data set [1] (setting [4]) stood at 2.64. `Cc1cc(Cl)cc(C(=O)NC2CCN(C)CC2)c1NC(=O)c1cc(Cn2nnc(C(F)(F)F)n2)nn1-c1ncccc1Cl` [Example 55] had a chromatographic logP in data set [1] (pH 2.7, log P) of 4.14. Besides, the pest or weed control at 100 g/ha in data set [3] was 100%. Take `Cc1cc(C#N)cc(C(=O)NC2CCN(C)CC2)c1NC(=O)c1cc(Cn2nnc(C(F)(F)F)n2)nn1-c1ccccc1Cl` [Example 59]: the chromatographic logP in data set [1] (setting [4]) worked out at 1.79. `Cc1cc(Cl)cc(C(=O)NCC2CCCO2)c1NC(=O)c1cc(Cn2nnc(C(F)(F)F)n2)nn1-c1ncccc1Cl` (centres unmarked) [Example 60] displayed a chromatographic logP in data set [1] (pH 2.7, log P) of 3.25. Also, in data set [3], the pest or weed control at 100 g/ha was 100%.

As for `Cc1ccc(CNC(=O)c2cc(C#N)cc(C)c2NC(=O)c2cc(Cn3nnc(C(F)(F)F)n3)nn2-c2ccccc2Cl)cc1` [Example 78], the chromatographic logP in data set [1] (setting [4]) is 3.74. Besides, the pest or weed control at 100 g/ha in data set [3] (setting [5]) was 100%. Consider `Cc1cc(Cl)cc(C(=O)NCc2ccccc2)c1NC(=O)c1cc(Cn2nnc(CCC(F)(F)F)n2)nn1-c1ncccc1Cl` [Example 79], for which, in data set [1] (pH 2.7, log P), the chromatographic logP was found to be 3.56. The same measure, in the same setting: under `Cc1cc(I)cc(C(=O)NCc2ccccc2)c1NC(=O)c1cc(Cn2nnc(CCC(F)(F)F)n2)nn1-c1ncccc1Cl` [Example 80] stands 3.78. `Cc1ccc(CNC(=O)c2cc(Cl)cc(C)c2NC(=O)c2cc(Cn3nnc(C(F)(F)F)n3)nn2-c2ncccc2Cl)cc1` [Example 90] came in with a chromatographic logP in data set [1] (pH 2.7, log P) of 4.08. Moreover, the pest or weed control at 100 g/ha in data set [3] was found to be 100%. Turning to `Cc1cc(C#N)cc(C(=O)NCc2ccccc2)c1NC(=O)c1cc(Cn2nnc(CCC(F)(F)F)n2)nn1-c1ncccc1Cl` [Example 130], in data set [1] (setting [4]), the chromatographic logP was 3.21. Also, in data set [2], the pest or weed control at 100 g/ha was 100%. Molecule `Cc1cc(Cl)cc(C(=O)NCc2ccccc2)c1NC(=O)c1cc(Cn2nnnc2CCC(F)(F)F)nn1-c1ncccc1Cl` [Example 131] gave a chromatographic logP in data set [1] (pH 2.7, log P) of 3.2. As for `Cc1cc(C#N)cc(C(=O)NCc2ccccc2)c1NC(=O)c1cc(Cn2nnnc2CCC(F)(F)F)nn1-c1ncccc1Cl` [Example 132], in data set [1] (setting [4]), the chromatographic logP stood at 2.84. Molecule `Cc1cc(I)cc(C(=O)NCc2ccccc2)c1NC(=O)c1cc(Cn2nnnc2CCC(F)(F)F)nn1-c1ncccc1Cl` [Example 133] yielded a chromatographic logP in data set [1] (pH 2.7, log P) of 3.45. `Cc1cc(I)cc(C(=O)NCc2ccccc2)c1NC(=O)c1cc(Cn2nc(C(F)(F)F)c(C(F)(F)F)n2)nn1-c1ncccc1Cl` [Example 135]: in data set [1] (setting [4]), the chromatographic logP amounted to 4.75.

For `Cc1cc(Cl)cc(C(=O)NC(C)c2cc(Cl)cc(Cl)c2)c1NC(=O)c1cc(Cn2nnc(C(F)(F)F)n2)nn1-c1ncccc1Cl` (centres unmarked) [Example 145], the chromatographic logP in data set [1] (setting [4]) is 4.66. On to `Cc1cc(I)cc(C(=O)NCc2cccc(OC(F)(F)F)c2)c1NC(=O)c1cc(Cn2nnc(C(F)(F)C(F)(F)F)n2)nn1-c1ncccc1Cl` [Example 147], for which the chromatographic logP in data set [1] (setting [4]) is 4.36. The pest or weed control at 100 g/ha in data set [2] worked out at 100%.

Turning to `Cc1cc(C#N)cc(C(=O)NCc2ccccc2OC(F)(F)F)c1NC(=O)c1cc(Cn2nnc(C(F)F)n2)nn1-c1ncccc1Cl` [Example 162], in data set [1] (setting [4]), the chromatographic logP amounted to 3.37. For the same molecule, in data set [2], the pest or weed control at 100 g/ha is 100%. As to `Cc1cc(Cl)cc(C(=O)NCc2cccc(OC(F)F)c2)c1NC(=O)c1cc(Cn2nnc(C(F)F)n2)nn1-c1ncccc1Cl` [Example 176], the chromatographic logP in data set [1] (setting [4]) was found to be 3.42.

As for `Cc1cc(C#N)cc(C(=O)NCc2ccccc2OC(F)F)c1NC(=O)c1cc(Cn2nnc(C(F)F)n2)nn1-c1ncccc1Cl` [Example 177], in data set [1] (setting [4]), the chromatographic logP came to 3.07. Regarding `Cc1cc(C#N)cc(C(=O)NCc2ccccc2OC(F)F)c1NC(=O)c1cc(Cn2nnc(C(F)(F)F)n2)nn1-c1ncccc1Cl` [Example 179], the chromatographic logP in data set [1] (setting [4]) stood at 3.55. In the case of `Cc1cc(C#N)cc(C(=O)NCc2ccc(OC(F)(F)F)cc2)c1NC(=O)c1cc(Cn2nnc(C(F)(F)F)n2)nn1-c1c(Cl)cccc1Cl` [Example 181], the chromatographic logP in data set [1] (setting [4]) stood at 4.46. In data set [3] (setting [5]), the pest or weed control at 100 g/ha is 100%. The molecule `Cc1ccc(Cl)c(C(=O)NCc2ccc(Cl)cc2)c1NC(=O)c1cc(Cn2nnc(C(F)(F)F)n2)nn1-c1ncccc1Cl` [Example 198] yielded a chromatographic logP in data set [1] (pH 2.7, log P) of 3.68. Take `Cc1ccc(Cl)c(C(=O)NCc2ccccc2OC(F)(F)F)c1NC(=O)c1cc(Cn2nnc(C(F)(F)F)n2)nn1-c1ncccc1Cl` [Example 199]: in data set [1] (setting [4]), the chromatographic logP was determined as 3.92. Turning to `Cc1ccc(Cl)c(C(=O)NCc2cccc(OC(F)(F)F)c2)c1NC(=O)c1cc(Cn2nnc(C(F)(F)F)n2)nn1-c1ncccc1Cl` [Example 200], the chromatographic logP in data set [1] (setting [4]) was determined as 3.94. With `Cc1ccc(Cl)c(C(=O)NCc2ccc(OC(F)(F)F)cc2)c1NC(=O)c1cc(Cn2nnc(C(F)(F)F)n2)nn1-c1ncccc1Cl` [Example 201], in data set [1] (setting [4]), the chromatographic logP was determined as 3.93. Turning to `O=C(NCc1ccccc1Cl)c1cc2ccccc2c(Cl)c1NC(=O)c1cc(Cn2nnc(C(F)(F)F)n2)nn1-c1ncccc1Cl` [Example 218], in data set [1] (setting [4]), the chromatographic logP came out at 4.1. As for `O=C(NCc1cccc(Cl)c1)c1cc2ccccc2c(Cl)c1NC(=O)c1cc(Cn2nnc(C(F)(F)F)n2)nn1-c1ncccc1Cl` [Example 219], the chromatographic logP in data set [1] (setting [4]) worked out at 4.13.

On to `O=C(NCc1ccc(Cl)cc1)c1cc2ccccc2c(Cl)c1NC(=O)c1cc(Cn2nnc(C(F)(F)F)n2)nn1-c1ncccc1Cl` [Example 220], for which the chromatographic logP in data set [1] (setting [4]) was determined as 4.11. On to `O=C(NCc1ccccc1OC(F)(F)F)c1cc2ccccc2c(Cl)c1NC(=O)c1cc(Cn2nnc(C(F)(F)F)n2)nn1-c1ncccc1Cl` [Example 221], for which the chromatographic logP in data set [1] (setting [4]) amounted to 4.36. For the same molecule, in data set [3] (setting [5]), the pest or weed control at 100 g/ha is 100%. `O=C(NCc1cccc(OC(F)(F)F)c1)c1cc2ccccc2c(Cl)c1NC(=O)c1cc(Cn2nnc(C(F)(F)F)n2)nn1-c1ncccc1Cl` [Example 222]: in data set [1] (setting [4]), the chromatographic logP worked out at 4.38. Also, the pest or weed control at 100 g/ha in data set [3] (setting [5]) is 100%. Consider `O=C(NCc1ccc(OC(F)(F)F)cc1)c1cc2ccccc2c(Cl)c1NC(=O)c1cc(Cn2nnc(C(F)(F)F)n2)nn1-c1ncccc1Cl` [Example 223], for which the chromatographic logP in data set [1] (setting [4]) was found to be 4.36. Besides, the pest or weed control at 100 g/ha in data set [3] (setting [5]) was found to be 100%. Regarding `Cc1ccc(CNC(=O)c2cc(Cl)cc(C)c2NC(=O)c2cc(Cn3nnc(C(F)(F)F)n3)nn2-c2ncccc2Cl)nc1C` [Example 227], in data set [1] (pH 2.7, log P), the chromatographic logP came out at 2.1. Further, the pest or weed control at 100 g/ha in data set [3] turned out to be 100%. On to `CCCc1cccc(CNC(=O)c2cc(Cl)cc(C)c2NC(=O)c2cc(Cn3nnc(C(F)(F)F)n3)nn2-c2ncccc2Cl)n1` [Example 229], for which the chromatographic logP in data set [1] (setting [4]) was determined as 2.94. Moreover, in data set [2], the pest or weed control at 100 g/ha was 100%. As for `Cc1cc(Cl)cc(C(=O)NCc2cc3ccccc3nc2Cl)c1NC(=O)c1cc(Cn2nnc(C(F)(F)F)n2)nn1-c1ncccc1Cl` [Example 237], in data set [1] (setting [4]), the chromatographic logP is 3.94.
